Like-named read-outs stand apart in the source and are kept apart here.
Tests used:
E. coli G6 (NDM-5) = system: T1, E. coli G6 (NDM-5); experiment: microbe, parasite or virus in culture; parameters: Broth microdilution MIC, bacterial growth inhibition in Mueller-Hinton broth; details: Escherichia coli, read-out: MIC (μg/mL)
T1 construct: G6
Method: (§1) Bacterial and chemical reagents Sequential culturing of E. coli ATCC 25922 in the presence of subinhibitory levels of tigecycline, azidothymidine, or the combination. After 24 h co-incubation, any cultures that grew at higher than the MIC levels were passaged on drug free MHA plates and the MIC was then determined by broth microdilution. This serial passaging was repeated daily for 30 days. To further evaluate the synergistic activity between tigecycline and three candidates, standard checkerboard microdilution in E. coli B3-1 was performed. […] Thus, we next focused our insights on the potentiation potency of azidothymidine with tigecycline. We first evaluated the stability of the azidothymidine-tigecycline combination in the presence of salt ions and serum, which are two critical factors that affect the in vivo efficacy of drugs[20],[21]. […] However, addition of divalent cations such as Ca^2+ and Mg^2+ (10 mM) abolished its potentiation activity, but EDTA could augment the synergistic effect (Supplementary Fig. 2). Considering that divalent cations and EDTA are associated with membrane permeability, we speculated that entrance of two drugs into bacteria contribute to their activity. Next, we assessed the potency of this combination in a panel of clinical isolates from animals and environmental samples (Supplementary Tables 2 and 3). […] To investigate whether this potentiation is also applicable in Tet(X)-negative bacteria, standard ATCC sensitive bacteria and other E. coli isolates with MIC values of ≤1 μg mL^−1 for tigecycline were tested.

[1] = system: T2, S. aureus 215 (LZD^R + cfr); experiment: microbe, parasite or virus in culture; parameters: Broth microdilution MIC, bacterial growth inhibition in Mueller-Hinton broth; details: Staphylococcus aureus, read-out: MIC (μg/mL)
T2 construct: 215
Method: as §1

[2] = system: T3, Enterococcus faecalis VRE A4; experiment: microbe, parasite or virus in culture; parameters: Broth microdilution MIC, bacterial growth inhibition in Mueller-Hinton broth; details: read-out: MIC (μg/mL)
T3 construct: VRE A4
Method: as §1

[3] = system: T4, Proteus penneri 2F1-3 (tet(X4)); experiment: microbe, parasite or virus in culture; parameters: Broth microdilution MIC, bacterial growth inhibition in Mueller-Hinton broth; details: read-out: MIC (μg/mL)
T4 construct: 2F1-3 (tet(X4))
Method: as §1

[4] = system: T5, E. coli B2 (NDM-5 + MCR-1); experiment: microbe, parasite or virus in culture; parameters: Broth microdilution MIC, bacterial growth inhibition in Mueller-Hinton broth; details: Escherichia coli, read-out: MIC (μg/mL)
T5 construct: B2
Method: as §1

[5] = system: T6, Escherichia coli ATCC 25922; experiment: microbe, parasite or virus in culture; parameters: Broth microdilution MIC, bacterial growth inhibition in Mueller-Hinton broth; details: Escherichia coli, ATCC25922, read-out: MIC (μg/mL)
T6 construct: ATCC 25922
Method: as §1

E. coli B3-1 (tet(X4)) = system: T7, E. coli B3-1 (tet(X4)); experiment: microbe, parasite or virus in culture; parameters: Broth microdilution MIC, bacterial growth inhibition in Mueller-Hinton broth; details: Escherichia coli
T7 construct: B3-1
Method: as §1

E. coli C3 (NDM-1) = system: T8, E. coli C3 (NDM-1); experiment: microbe, parasite or virus in culture; parameters: Broth microdilution MIC, bacterial growth inhibition in Mueller-Hinton broth; details: Escherichia coli, read-out: MIC (μg/mL)
T8 construct: C3
Method: as §1

[6] = system: T9, Salmonella enterica ATCC 13076; experiment: microbe, parasite or virus in culture; parameters: Broth microdilution MIC, bacterial growth inhibition in Mueller-Hinton broth; details: ATCC13076, read-out: MIC (μg/mL)
T9 construct: ATCC 13076
Method: as §1

E. coli W7-1 (tet(X4)) = system: T10, E. coli W7-1 (tet(X4)); experiment: microbe, parasite or virus in culture; parameters: Broth microdilution MIC, bacterial growth inhibition in Mueller-Hinton broth; details: Escherichia coli, read-out: MIC (μg/mL)
T10 construct: W7-1
Method: as §1

[7] = system: T11, Staphylococcus aureus MRSA T144; experiment: microbe, parasite or virus in culture; parameters: Broth microdilution MIC, bacterial growth inhibition in Mueller-Hinton broth; details: Staphylococcus aureus, MRSA, read-out: MIC (μg/mL)
T11 construct: T144
Method: as §1

E. coli B8-1 (tet(X4)) = system: T12, E. coli B8-1 (tet(X4)); experiment: microbe, parasite or virus in culture; parameters: Broth microdilution MIC, bacterial growth inhibition in Mueller-Hinton broth; details: Escherichia coli, read-out: MIC (μg/mL)
T12 construct: B8-1
Method: as §1

[8] = system: T13, Staphylococcus aureus MRSA 1518; experiment: microbe, parasite or virus in culture; parameters: Broth microdilution MIC, bacterial growth inhibition in Mueller-Hinton broth; details: Staphylococcus aureus, MRSA, read-out: MIC (μg/mL)
T13 construct: 1518
Method: as §1

[9] = system: T14, Shigella 1F25-27 (tet(X4)); experiment: microbe, parasite or virus in culture; parameters: Broth microdilution MIC, bacterial growth inhibition in Mueller-Hinton broth; details: read-out: MIC (μg/mL)
T14 construct: 1F25-27 (tet(X4))
Method: as §1

E. coli P3-1 (tet(X4)) = system: T15, E. coli P3-1 (tet(X4)); experiment: microbe, parasite or virus in culture; parameters: Broth microdilution MIC, bacterial growth inhibition in Mueller-Hinton broth; details: Escherichia coli, read-out: MIC (μg/mL)
T15 construct: P3-1
Method: as §1

[10] = system: T16, Staphylococcus aureus ATCC 29213; experiment: microbe, parasite or virus in culture; parameters: Broth microdilution MIC, bacterial growth inhibition in Mueller-Hinton broth; details: Staphylococcus aureus, ATCC29213, read-out: MIC (μg/mL)
T16 construct: ATCC 29213
Method: as §1

E. coli P10-1 (tet(X4)) = system: T17, E. coli P10-1 (tet(X4)); experiment: microbe, parasite or virus in culture; parameters: Broth microdilution MIC, bacterial growth inhibition in Mueller-Hinton broth; details: Escherichia coli, read-out: MIC (μg/mL)
T17 construct: P10-1
Method: as §1

E. coli B9-1 (tet(X4)) = system: T18, E. coli B9-1 (tet(X4)); experiment: microbe, parasite or virus in culture; parameters: Broth microdilution MIC, bacterial growth inhibition in Mueller-Hinton broth; details: Escherichia coli, read-out: MIC (μg/mL)
T18 construct: B9-1
Method: as §1

[11] = system: T19, E. fergusonnii 1C4-6 (tet(X4)); experiment: organism not typed; parameters: Broth microdilution MIC, bacterial growth inhibition in Mueller-Hinton broth; details: read-out: MIC (μg/mL)
T19 construct: 1C4-6 (tet(X4))
Method: (§2) Bacterial and chemical reagents Sequential culturing of E. coli ATCC 25922 in the presence of subinhibitory levels of tigecycline, azidothymidine, or the combination. After 24 h co-incubation, any cultures that grew at higher than the MIC levels were passaged on drug free MHA plates and the MIC was then determined by broth microdilution. This serial passaging was repeated daily for 30 days. To further evaluate the synergistic activity between tigecycline and three candidates, standard checkerboard microdilution in E. coli B3-1 was performed. […] Thus, we next focused our insights on the potentiation potency of azidothymidine with tigecycline. We first evaluated the stability of the azidothymidine-tigecycline combination in the presence of salt ions and serum, which are two critical factors that affect the in vivo efficacy of drugs[20],[21]. […] However, addition of divalent cations such as Ca^2+ and Mg^2+ (10 mM) abolished its potentiation activity, but EDTA could augment the synergistic effect (Supplementary Fig. 2). Considering that divalent cations and EDTA are associated with membrane permeability, we speculated that entrance of two drugs into bacteria contribute to their activity. Next, we assessed the potency of this combination in a panel of clinical isolates from animals and environmental samples (Supplementary Tables 2 and 3). […]

E. brevis S1-3 (tet(X3)) = system: T20, E. brevis S1-3 (tet(X3)); experiment: organism not typed; parameters: Broth microdilution MIC, bacterial growth inhibition in Mueller-Hinton broth; details: read-out: MIC (μg/mL)
T20 construct: S1-3 (tet(X3))
Method: as §2

Tet(X4) = target: T21, Tet(X4) (Escherichia coli, UniProt A0A3T0V9Y5); experiment: purified enzyme inhibition assay, tigecycline absorbance at […] nm; assay type: biochemical
T21 construct: gene mtr-1

Cc1cn([C@H]2C[C@H](N=[N+]=[N-])[C@@H](CO)O2)c(=O)[nH]c1=O [AZI, azidothymidine]
MIC (E. coli G6 (NDM-5)): 4 µg/mL
MIC [1]: > 16 µg/mL
MIC [2]: > 16 µg/mL
MIC [3]: 8 µg/mL
MIC [4]: > 16 µg/mL
MIC [5]: 2 µg/mL
MIC (E. coli B3-1 (tet(X4)); read-out: MIC (μg/mL)): 1 µg/mL
MIC (E. coli C3 (NDM-1)): > 16 µg/mL
MIC [6]: 0.25 µg/mL
MIC (E. coli W7-1 (tet(X4))): 2 µg/mL
MIC [7]: > 16 µg/mL
MIC (E. coli B8-1 (tet(X4))): 0.5 µg/mL
MIC [8]: > 16 µg/mL
MIC [9]: 2 µg/mL
MIC (E. coli P3-1 (tet(X4))): 0.5 µg/mL
MIC [10]: > 16 µg/mL
MIC (E. coli P10-1 (tet(X4))): 0.25 µg/mL
MIC (E. coli B9-1 (tet(X4))): 1 µg/mL
MIC [11]: 8 µg/mL
MIC (E. brevis S1-3 (tet(X3))): > 32 µg/mL
IC50 (Tet(X4)): 0.106 µM

CN(C)c1cc(NC(=O)CNC(C)(C)C)c(O)c2c1C[C@H]1C[C@H]3[C@H](N(C)C)C(O)=C(C(N)=O)C(=O)[C@@]3(O)C(O)=C1C2=O [Tigecycline]
MIC (E. coli B3-1 (tet(X4)); read-out: MHB (MIC, μg/mL)): 32 µg/mL

— article PMC7125129, “Anti-HIV agent azidothymidine decreases Tet(X)-mediated bacterial resistance to tigecycline in Escherichia coli” (Communications Biology, 2020)
